The text below walks through data of patent US12509437B2, “Substituted thiophene carboxamides and derivatives thereof as microbicides” (Bayer Aktiengesellschaft, priority 2019, dated 2025).

A value given as a limit tells only on which side of the number the result lay.

Data set [1] is described as follows: LogP by HPLC on reversed phase columns (EEC directive 79/831 Annex V.A8). Type of data set: physicochemical. The settings on record: reversed phase HPLC columns; method [a]. In a few lines: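 LogP derived from retention time, interpolated linearly between bracketing alkan-2-one standards (3 to 16 carbons). Where several values exist for one method, all are listed with "+"; UV spectra 200–400 nm at peak maxima gave lambda-max.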

Data set [2] relates to salicylate responsive promoter sequence of the PR1 (pathogenesis-related protein I) gene (AT2G14610). Description: Induction of defense gene expression in Arabidopsis thaliana (PR1 promoter-GFP reporter plants). The format is in vivo. The settings on record: 72 h, 3rd day after spraying, mock treated leaves set as 1.00, read-out: relative fluorescence value. The gist of the method:
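Transgenic A. thaliana carrying GFP under the salicylate-responsive PR1 promoter, grown five days, then sprayed with compounds. Whole-plant fluorescence imaged and quantified on day 3 post-spray, expressed relative to mock-treated leaf background set at 1.00.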

Data set [3] deals with Colletotrichum lindemuthianum. Description: In vivo preventive test on Colletotrichum lindemuthianum (Anthracnose on bean). The following applies: Colletotrichum lindemuthianum, 144 h, sprayed 72 hours before inoculation, evaluated 6 days after inoculation, read-out: efficacy; for pest or weed control at 500 ppm: 500 ppm of active ingredient; for pest or weed control at 125 ppm: 125 ppm of active ingredient. The gist of the method: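 Young bean plants were sprayed with compound in acetone/DMSO/Tween diluted in water, then inoculated 72 h later with C. lindemuthianum spores. Incubation was 24 h at 20 °C/100% RH, then 5 days at 20 °C/90% RH. Efficacy scored 6 days post-inoculation: 0% equals solvent-treated control, 100% means no disease.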

The test system of another data set is Peronospora parasitica. Description: In vivo preventive test on Peronospora parasitica (Crucifer downy mildew) on cabbage. The following applies: Hyaloperonospora parasitica, 120 h, sprayed 72 hours before inoculation, evaluated 5 days after inoculation, read-out: efficacy; for pest or weed control at 31 ppm: 31 ppm of active ingredient; for pest or weed control at 125 ppm: 125 ppm of active ingredient; for pest or weed control at 500 ppm: 500 ppm of active ingredient. In a few lines: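 Preventive protocol: spore inoculation followed compound spraying by 72 h, with 5 days' incubation at 20 °C and 100% relative humidity. Disease was rated 5 days after inoculation against solvent-only plants (0% = control level, 100% = disease-free).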

In the next data set the test system is Uromyces appendiculatus. The data set is described as follows: In vivo preventive test on Uromyces appendiculatus (bean rust). The following applies: 240 h, sprayed 72 hours before inoculation, evaluated 10 days after inoculation, read-out: efficacy; for pest or weed control at 31 ppm: 31 ppm of active ingredient; for pest or weed control at 125 ppm: 125 ppm of active ingredient; for pest or weed control at 500 ppm: 500 ppm of active ingredient. In a few lines:
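Young bean plants sprayed with compound in acetone/DMSO/Tween diluted in water, then inoculated 72 h later with spore suspension. Incubated 24 h at 20° C., 100% RH, then 9 days at 20° C., 70-80% RH. Efficacy scored 10 days post-inoculation, 0% = untreated-control level, 100% = no disease.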

Data set [4] concerns Pseudomonas syringae pv. tomato. Description: In vivo preventive test on Pseudomonas syringae pv. tomato (bacterial speck on tomato). The following applies: sprayed 72 hours before inoculation, evaluated 5 or 6 days after inoculation, read-out: efficacy; for pest or weed control at 125 ppm: 125 ppm of active ingredient. The protocol: The tested active ingredients were prepared by homogenization in a mixture of acetone/Dimethyl sulfoxide/Tween®, and then diluted with water to obtain the desired active material concentration.
The young plants of tomato were treated by spraying the active ingredient prepared as described above. Control plants were treated only with an aqueous solution of acetone/Dimethyl sulfoxide/Tween®.
After 72 hours, the plants were contaminated by spraying the leaves with an aqueous bacteria suspension of Pseudomonas syringae pv. tomato. The contaminated tomato plants were incubated for 4 days in saturated atmosphere at 22° C. day/20° C. night−70% HR and then for 1 or 2 days at 22° C. day/20° C. night at 70-80% relative humidity.
The test was evaluated 5 or 6 days after the inoculation. 0% means an efficacy which corresponds to that of the control plants while an efficacy of 100% means that no disease was observed.

Another data set relates to Alternaria alternata. The data set is described as follows: Alternaria alternata in vitro cell test. Type of data set: cell-based. The settings on record: 120 h, 5 days incubation, read-out: efficacy (inhibition of fungal growth; no direct activity); for inhibition at 5 ppm: 5 ppm of active ingredient; for inhibition at 20 ppm: 20 ppm of active ingredient. The gist of the method: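 A. alternata spores in glucose/peptone/yeast-extract liquid medium were exposed to DMSO-solubilized compound (final DMSO ≤1%). After 5 days incubation, mycelium growth read spectrometrically; inhibition derived from absorbance relative to fungicide-free control wells.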

In data set [5] the test system is Colletotrichum lindemuthianum. The data set is described as follows: Colletotrichum lindemuthianum in vitro cell test. The settings on record: 144 h, 5 ppm of active ingredient, 6 days incubation, read-out: efficacy (inhibition of fungal growth; no direct activity). Type of data set: cell-based. The gist of the method: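 Inhibition of spore germination and mycelial growth in liquid culture, read spectrometrically after 6 days incubation. Compounds added from DMSO (final ≤1%) to spores in glucose/peptone/yeast-extract medium; absorbance compared with untreated controls.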

The test system of data set [6] is Xanthomonas campestris pv. campestris. The data set is described as follows: Xanthomonas campestris pv. campestris in vitro cell test. Type of data set: cell-based. The settings on record: 24 h of incubation, read-out: efficacy (inhibition of bacteria growth; no direct activity); for inhibition at 5 ppm: 5 ppm of active ingredient; for inhibition at 20 ppm: 20 ppm of active ingredient. The gist of the method:
(§1)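 Bacteria from liquid pre-culture diluted to set OD in LB broth and exposed to compounds dissolved in DMSO (final ≤1%). After 24 h, growth read by absorbance; inhibition derived relative to compound-free control wells.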

Data set [7] relates to Pseudomonas syringae pv. tomato. The data set is described as follows: Pseudomonas syringae pv. tomato in vitro cell test. The settings on record: 20 ppm of active ingredient, 24 h of incubation, read-out: efficacy (inhibition of bacteria growth; no direct activity). The format is cell-based. In a few lines: as §1

As to `CCOC(=O)C(NC(=O)c1sc(Cl)c(Cl)c1C)C1CC1` (centres unmarked) [I.083], the chromatographic logP in [1] was 3.76. Also, in [2], the fold induction at 300 ppm was greater than 2. Also, the pest or weed control at 500 ppm (in data set [3]; in the data set with Peronospora parasitica; with Uromyces appendiculatus) was 90 to 100% in each case. The pest or weed control at 31 ppm in the data set with Peronospora parasitica and in the data set on Uromyces appendiculatus was 90 to 100% throughout. The figures for the pest or weed control at 125 ppm (in the data set on Peronospora parasitica; with Uromyces appendiculatus; in data set [4]) were 90 to 100%, 90 to 100% and 70 to 79%, respectively. Besides, the inhibition at 5 ppm (in the data set on Alternaria alternata; in [5]; in [6]) was no more than 30% throughout. Moreover, the inhibition at 20 ppm (in the data set with Alternaria alternata; in data set [6]; in data set [7]) was no more than 30% in each case.

The compound `COC(=O)C(CC(F)F)NC(=O)c1sc(Br)c(Br)c1C` (centres unmarked) [I.108] registered a chromatographic logP in data set [1] of 3.33. Further, the fold induction at 75 ppm in data set [2] (75 ppm) is greater than 2. The fold induction at 300 ppm in [2] is greater than 2. Besides, the pest or weed control at 125 ppm is 80 to 89% in data set [3], 70 to 79% in the data set with Peronospora parasitica and 90 to 100% in the data set with Uromyces appendiculatus. Also, the pest or weed control at 500 ppm is 90 to 100% in data set [3], 90 to 100% with Peronospora parasitica, 90 to 100% in the data set on Uromyces appendiculatus and 70 to 79% in data set [4] (500 ppm of active ingredient). Further, the pest or weed control at 31 ppm in the data set on Peronospora parasitica fell in the range of 70 to 79%. Moreover, the inhibition at 5 ppm (with Alternaria alternata; in [6]) was no more than 30% in each case. The inhibition at 20 ppm (with Alternaria alternata; in data set [6]; in data set [7]) was no more than 30% throughout.

`COC(=O)C(NC(=O)c1sc(Cl)c(Cl)c1C)c1cccs1` (centres unmarked) [I.165] came in with a chromatographic logP in data set [1] of 3.81. For the same compound, the fold induction at 300 ppm in [2] was greater than 2. The pest or weed control at 31 ppm in [3] (31 ppm of active ingredient) lay in the range of 80 to 89%; with Peronospora parasitica, 90 to 100%; with Uromyces appendiculatus it was 90 to 100%. In addition, the pest or weed control at 125 ppm was in the range of 80 to 89% in [3], 90 to 100% in the data set with Peronospora parasitica, 90 to 100% in the data set on Uromyces appendiculatus and 80 to 89% in data set [4]. Moreover, the inhibition at 5 ppm (with Alternaria alternata; in data set [5]; in [6]) was no more than 30% in each case. Besides, the inhibition at 20 ppm (in the data set on Alternaria alternata; in [6]; in data set [7]) was no more than 30% throughout.
